This experiment deals with T1, murine MAdCAM-1 (MAdCAM-1/mCk fusion protein); α4β7-bearing HUT 78 cells (Homo sapiens, UniProt P13612+P26010).
T1 construct: host or cells: HUT 78 cells (endogenous α4β7); The MAdCAM-1/mCk partner was made in house in baculovirus-infected Sf9 insect cells, used as neat supernatant and captured by rat anti-mCk antibody
Briefly: Adhesion of HUT 78 cells to MAdCAM-1/mCk fusion protein bound via capture antibody. The settings on record: for IC50: HUT 78 cell adhesion to MAdCAM-1/mCk, average of two determinations; for % Adhesion Inhibition 500 μM: 500 μM compound, HUT 78 cells, Mn2+ activated. Format: cell-based. The method, then: The compounds of the present invention were evaluated for their biological properties.
A soluble fusion protein comprising murine MAdCAM-1 was produced in a baculovirus expression system and used in the adhesion assay. A fusion gene in which sequences encoding the signal peptide and extracellular domain of murine MAdCAM-1 were fused to sequences encoding a constant region of the murine kappa light chain (mCk) was constructed, and cloned into a baculovirus shuttle vector. Fusion protein produced from the resulting construct contained the integrin binding sequences of murine MAdCAM-1 at the amino-terminus, and the mCk sequence at the carboxy-terminus. Recombinant baculovirus encoding the fusion protein was harvested from infected Sf9 insect cells.
Human T-cell lymphoma cells (HUT 78 cells) activated with Mn^+2 were used for the adhesion assay in a 96-well format. HUT 78 cells were labelled by preincubation with ECECF-AM stain (Molecular Probes). Assays were conducted in a final volume of 200 μl. The adhesion of HUT 78 cells to MAdCAM-1/mCk fusion protein bound to wells via rat anti-mCk capture antibody was assessed in the presence or absence of each compound. […] Percent inhibition and IC50 values were determined.
HUT 78 cells (a human T cell lymphoma line; American Type Culture Collection, Accession No. ATCC TIB 161) were maintained in culture for up to one month in RPMI 1640 supplemented with 10% FCS, 20 mM HEPES, and Pen-Strep (1:100). Just prior to use in adhesion assays, cells were labeled with BCECF-AM as follows: 1×10^7 cells were pelleted at 1000 rpm for 10 minutes and resuspended in 25 mL cold PBS (Phosphate Buffered Saline). The cells were pelleted again, resuspended in cold PBS, and pelleted again. The cell pellet was resuspended in 25 ml PBS and labeled with 50 μl BCECF-AM (1 μg/μL in DMSO) for 30 minutes at 37° C. (BCECF-AM; 2′,7′-bis-(2-carboxyethyl)-5-(and-6)-carboxyflourescein, acetoxymethyl ester). The labeled cells were pelleted at 700 rpm for 10 minutes, resuspended in 25 ml cold Assay Buffer and pelleted.
The assay was performed in a 96-well format. Plates were coated overnight at 4° C. with 53 μl/well of a 5 μg/mL solution of rat anti-mCk in carbonate buffer. The plates were blocked for 1 hour at 37° C. with 100 μL/well of 1% BSA in PBS. The BSA/PBS solution was removed, and 50 μL of MAdCAM-mCk supernatant was added neat to each well. The assay was conducted under conditions in which capture antibody was the limiting reagent.
Cell adhesion was measured in the presence or absence of compounds. The compounds were resuspended in 100% DMSO, subsequently diluted 1:10 in water, and finally diluted again 1:10 in the assay: 50 μL of 2X Assay Bufler, 30 μL water, 20 μL of compound were added to each well. […] Cell adhesion occurred in 30 minutes at ambient temperature, after which plates were washed with 50 mM Tris/2 mM MnCl2, pH 7.2 using an EL 404 Microplate Autowasher (BIO-TEK Instruments) using the following wash parameters: wash volume=500 μL; two wash cycles; wash depth=80; aspirating after each wash.
Additional determinations were conducted as needed, so that each IC50 was determined over a range which encompassed the IC50. Over this range, Four different concentrations were tested in duplicate.
For each compound, a ratio was determined as follows: An average of the readings from duplicate wells was divided by an average of eight control wells (adhesion in the absence of any compound). […] In addition, the concentration (μM) of compound used was plotted against the resulting ratios.
The IC50 was then determined using Kaleidograph software (Abelbeck Software). The complete procedure was repeated again using duplicate wells for each point.

Setting [1] is: HuT78, read-out: % Adhesion Inhibition.

Read-outs that look alike come from different tables or passages of the source. Square brackets hold non-standard residues; d marks the D form. Ends that are not written are not given here. Peptide text beside a SMILES is read from it. * marks the point of attachment. Butanoyl(4-pyren-1-yl) = O=C(CCCc1ccc2ccc3cccc4ccc1c2c34)*; Cyclopentanecarbonyl = O=C(C1CCCC1)*; NMeL = CN[C@@H](CC(C)C)C(=O)O

Broadly, the IC50 is the concentration that inhibits the measured activity by half. As to `CC(C)C[C@H](NC(=O)[C@H](CO)NC(=O)[C@@H](NC(=O)[C@H](CC(=O)O)NC(=O)[C@H](CC(C)C)NC(=O)c1ccc2cc3ccccc3cc2c1)[C@@H](C)O)C(N)=O` [Example 38, 2-Anc-Leu-Asp-Thr-Ser-Leu], the IC50 (read-out: IC50) stood at 5.4 µM.

By inhibition is commonly meant the relative decrease from the control value, in per cent. Take `CC(C)C[C@H](NC(=O)[C@H](CO)NC(=O)[C@@H](NC(=O)[C@H](C)NC(=O)[C@H](CC(C)C)NC(=O)CCCc1ccc2ccc3cccc4ccc1c2c34)[C@@H](C)O)C(N)=O` [Example 39, Pba-Leu-Ala-Thr-Ser-Leu] ({Butanoyl(4-pyren-1-yl)}-LATSL-NH2): under setting [1], the inhibition at 250 µM came out at 100%. 28 µM corresponded to half-maximal inhibition (IC50 (μM)) (IC50).

Take `CC(C)C[C@H](NC(=O)[C@H](CO)NC(=O)[C@@H](NC(=O)[C@H](Cc1ccc(O)cc1)NC(=O)[C@H](CC(C)C)NC(=O)CCCc1ccc2ccc3cccc4ccc1c2c34)[C@@H](C)O)C(N)=O` [Example 42, Pba-Leu-Tyr-Thr-Ser-Leu] ({Butanoyl(4-pyren-1-yl)}-LYTSL-NH2): the inhibition at 500 µM (HuT78, read-out: % Adhesion Inhibition 500 μM) is 100%. For the same molecule, where the note is “IC50 (μM)”, 30 µM corresponded to half-maximal inhibition (IC50).

As to `CC(=O)N(C)[C@@H](CC(C)C)C(=O)N[C@@H](CC(=O)O)C(=O)N[C@H](C(=O)N[C@@H](CO)C(=O)N[C@@H](CC(C)C)C(N)=O)[C@@H](C)O` [Example 49, Ac-MeLeu-Asp-Thr-Ser-Leu], the IC50 (read-out: IC50) came out at 150 µM.

As for `CC(C)C[C@H](NC(=O)[C@H](CO)NC(=O)[C@@H](NC(=O)[C@H](CC(=O)O)NC(=O)C1CCCC1)[C@@H](C)O)C(N)=O` [Example 50, Cpc-Asp-Thr-Ser-Leu] (Cyclopentanecarbonyl-DTSL-NH2), the 50% inhibitory concentration (IC50) (read-out: IC50) came out at 8.9 µM.

Take `CC(C)C[C@H](NC(=O)[C@H](CO)NC(=O)[C@@H](NC(=O)[C@H](CC(=O)O)NC(=O)CCCc1ccc2ccc3cccc4ccc1c2c34)[C@@H](C)O)C(N)=O` [Example 51, Pba-Asp-Thr-Ser-Leu] ({Butanoyl(4-pyren-1-yl)}-DTSL-NH2): the inhibition at 100 µM under setting [1] was found to be 100%. For the same molecule, the IC50 (IC50 (μM)) was 13.3 µM.

Take `C[C@@H](O)[C@H](NC(=O)[C@H](CC(=O)O)NC(=O)c1ccc2ccc3cccc4ccc1c2c34)C(N)=O` [Example 52, Pca-Asp-Thr]: the IC50 (read-out: IC50) stood at 11 µM.

Regarding `C[C@@H](O)[C@H](NC(=O)[C@H](CC(=O)O)NC(=O)CCCc1ccc2ccc3cccc4ccc1c2c34)C(N)=O` [Example 53, Pba-Asp-Thr], the inhibition at 100 µM under setting [1] amounted to 100%. Further, half-maximal inhibition (IC50 (μM)) (IC50) required 13.5 µM.

Turning to “Ac-Arg-Gly-Leu-Asp-Thr-Ser-Leu-Gly (Ac-RGLDTSLG; not fully specified (C-terminus); printed as Ac-Arg-Gly-Leu-Asp-Thr-Ser-Leu-Gly) [Example 59]”, the “% Adhesion Inhibition 500 μM” value came to 75%.

For the molecule “Ac-Arg-Val-His-Trp-Arg-Gly-Leu-Asp-Thr-Ser-Leu-Gly-Ser-Val-Gln (Ac-RVHWRGLDTSLGSVQ; not fully specified (C-terminus); printed as Ac-Arg-Val-His-Trp-Arg-Gly-Leu-Asp-Thr-Ser-Leu-Gly-Ser-Val-Gln) [Example 62]”, the “% Adhesion Inhibition 500 μM” value was 88%.

Consider “Ac-His-Trp-Arg-Gly-Leu-Asp-Thr-Ser-Leu-Gly-Ser-Val (Ac-HWRGLDTSLGSV; not fully specified (C-terminus); printed as Ac-His-Trp-Arg-Gly-Leu-Asp-Thr-Ser-Leu-Gly-Ser-Val) [Example 61]”, for which the “% Adhesion Inhibition 500 μM” value worked out at 71%.

For the molecule “Ac-Leu-Asp-Thr-Ser-Leu (Ac-LDTSL; not fully specified (C-terminus); printed as Ac-Leu-Asp-Thr-Ser-Leu) [Example 58]”, the “% Adhesion Inhibition 500 μM” value was determined as 71%.

For the molecule Ac-Lle-Asp-Thr-Ser-Leu [Example 46], the “% Adhesion Inhibition 500 μM” value is reported as 17%.

Take “Ac-Trp-Arg-Gly-Leu-Asp-Thr-Ser-Leu-Gly-Ser (Ac-WRGLDTSLGS; not fully specified (C-terminus); printed as Ac-Trp-Arg-Gly-Leu-Asp-Thr-Ser-Leu-Gly-Ser) [Example 60]”: the “% Adhesion Inhibition 500 μM” value was found to be 71%.

As for “MeLeu-Leu-Asp-Thr-Ser-Leu ([NMeL]LDTSL) [Example 27]”, the “% Adhesion Inhibition 500 μM” value was determined as 54%. In addition, the half-inhibitory concentration (IC50) (read-out: IC50) came out at 256 µM.

As to “NH2-Arg-Val-His-Trp-Arg-Gly-Leu-Asp-Thr-Ser-Leu-Gly-Ser-Val-Gln (H-RVHWRGLDTSLGSVQ; not fully specified (C-terminus); printed as NH2-Arg-Val-His-Trp-Arg-Gly-Leu-Asp-Thr-Ser-Leu-Gly-Ser-Val-Gln) [Example 57]”, the “% Adhesion Inhibition 500 μM” value is 90%.

In the case of “NH2-His-Trp-Arg-Gly-Leu-Asp-Thr-Ser-Leu-Gly-Ser-Val (H-HWRGLDTSLGSV; not fully specified (C-terminus); printed as NH2-His-Trp-Arg-Gly-Leu-Asp-Thr-Ser-Leu-Gly-Ser-Val) [Example 56]”, the “% Adhesion Inhibition 500 μM” value was 80%.

In the case of “NH2-Leu-Asp-Thr-Ser-Leu (H-LDTSL; not fully specified (C-terminus); printed as NH2-Leu-Asp-Thr-Ser-Leu) [Example 54]”, the “% Adhesion Inhibition 500 μM” value was found to be 22%.

Regarding “NH2-Trp-Arg-Gly-Leu-Asp-Thr-Ser-Leu-Gly-Ser (H-WRGLDTSLGS; not fully specified (C-terminus); printed as NH2-Trp-Arg-Gly-Leu-Asp-Thr-Ser-Leu-Gly-Ser) [Example 55]”, the “% Adhesion Inhibition 500 μM” value came to 76%.

For the origin of these results see US20020103111A1, “Inhibitors of MAdCAM-1-mediated interactions and methods of use therefor” (Millennium Pharmaceuticals, Inc., priority 1996, published 2002).
